The values that follow come from article PMC4240039, “Interactions of ABCG2 (BCRP) with epidermal growth factor receptor kinase inhibitors developed for molecular imaging” (Frontiers in Pharmacology, 2014).

Data set [1] addresses T1, BCRP (Homo sapiens, UniProt Q9UNQ0).
T1 construct: expressed in transfected cells; host or cells: MDCK (MDCKII) cells, pcDNA3 vector; gift from Prof; Qingcheng Mao
T1 sequence (Q9UNQ0 1-655): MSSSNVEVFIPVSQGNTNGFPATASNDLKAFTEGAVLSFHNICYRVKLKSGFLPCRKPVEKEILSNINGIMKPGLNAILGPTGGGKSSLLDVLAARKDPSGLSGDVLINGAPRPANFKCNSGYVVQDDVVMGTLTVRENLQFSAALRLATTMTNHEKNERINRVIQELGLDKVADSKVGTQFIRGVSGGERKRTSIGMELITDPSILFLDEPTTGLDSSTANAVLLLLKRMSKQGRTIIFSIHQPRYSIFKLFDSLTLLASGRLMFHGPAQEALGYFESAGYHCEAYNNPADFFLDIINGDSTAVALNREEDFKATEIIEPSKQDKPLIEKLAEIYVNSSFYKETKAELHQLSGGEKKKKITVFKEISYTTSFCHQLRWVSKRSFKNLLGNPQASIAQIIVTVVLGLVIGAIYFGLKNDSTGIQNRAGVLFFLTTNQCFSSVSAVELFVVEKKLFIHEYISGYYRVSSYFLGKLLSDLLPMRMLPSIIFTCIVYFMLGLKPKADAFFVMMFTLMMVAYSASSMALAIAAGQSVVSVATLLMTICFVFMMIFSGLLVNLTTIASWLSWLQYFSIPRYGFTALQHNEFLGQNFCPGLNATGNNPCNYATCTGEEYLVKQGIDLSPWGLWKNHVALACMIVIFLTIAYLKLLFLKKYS
Description: BODIPY-prazosin accumulation assay in MDCK-BCRP cells. Format: cell-based. The note with it: 500 nM BODIPY-prazosin, 1 h incubation; test compounds 400 nM. As for the experimental part:
Accumulation assays with fluorescent substrates of eﬄux transporter are commonly utilized to determine the inhibitory effect of a test compound ([Brouwer et al., 2013]). In this study, MDCK-CT and MDCK-BCRP cells were seeded at density of 20 × 10^4 cells/well in 24 well plates. Experiments were performed two days after achieving 100% confluent monolayers. Prior to the experiment, the medium was removed and cells were incubated for 1 h with one of the test compounds dissolved in DMEM with 5 mM 4-(2-Hydroxyethyl)-1-piperazineethanesulfonic acid (HEPES), pH 7.4. In the accumulation phase cells were co-incubated with 500 nM BODIPY-prazosin (a BCRP/P-gp substrate; [Dey et al., 1997]; [Ni et al., 2010]) and one of the test compounds dissolved in DMEM with 5 mM HEPES. After 1 h, the cells were washed three times with ice-cold PBS. Intracellular fluorescence intensity of BODIPY-prazosin was measured within 1 h by a plate reader (Synergy HT, BioTek, Winooski, VT, USA) with excitation wavelength 485 nm and emission wavelength 528 nm.
FIGURE 4 Effect of EGFRIs on BODIPY-prazosin accumulation. Cell protein concentration-normalized BODIPY prazosin fluorescence in MDCK-BCRP cells were evaluated in the presence and the absence of 400 nM of the tested compounds following 1 h incubation.

In data set [2] the target is T2, human BCRP ATPase (Homo sapiens, UniProt Q9UNQ0).
T2 construct: purchased SOLVO Biotechnology, Szeged, Hungary; host or cells: Sf9 membrane preparations
T2 sequence (Q9UNQ0 1-655): T1 sequence (Q9UNQ0 1-655)
Description: BCRP ATPase activation assay ([…] kit, Sf9 membrane preparations). The note with it: for Activation of BCRP ATPase: 400 nM (submicromolar), Sf9 membranes containing BCRP, vanadate-sensitive ATPase activity; for BCRP ATPase activation relative to that produced by gefitinib: 400 nM, Sf9 membranes. In kind it is biochemical. As for the experimental part: ATPase activity was evaluated using […] kits (SOLVO Biotechnology, Szeged, Hungary), according to the manufacturer’s instructions.
FIGURE 2 Interactions of EGFRIs with BCRP ATPase. (A) Activation of BCRP-ATPase in Sf9 membrane preparations containing BCRP. Membranes were incubated with ATP and the tested compounds at 400 nM in the presence and absence of sodium orthovanadate. (B) Inhibition of sulfasalazine-stimulated BCRP-ATPase. The effect of EGFRIs was evaluated in sulfasalazine (10 μM)-stimulated membranes. Data are presented as means ± SD of the vanadate-sensitive ATPase activity from two experiments in duplicates.

Data set [3] has as its system MDCK-CT cells. Description: MTT cell proliferation assay, vector control cells. Format: cell-based, canine. The note with it: Canis lupus familiaris, 72 h, read-out: IC50 for inhibition of control cell proliferation. As for the experimental part: (§1) Madin-Darbey canine kidney (MDCK) cells transfected with pcDNA empty vector (MDCK-pcDNA3; MDCK-CT) and cDNA coding for wild-type BCRP (MDCK-BCRP) cells were a generous gift from Prof. Qingcheng Mao (University of Washington, Seattle, WA, USA). The human lung carcinoma cell lines A549 and HCC827 cells were provided by Prof. Eyal Mishani.
Madin-Darbey canine kidney vector (MDCK-pcDNA3) and MDCK-BCRP cells were grown in Eagle’s minimum essential medium (MEM) supplemented with 10% fetal bovine serum, 2 mM L-glutamine, 100 units/mL penicillin, and 100 μg/mL streptomycin, at 37∘C and 5% CO2-humidified incubator. The BCRP positive cells were selected by supplementation of 0.05 mg/mL gentamicin to the growth medium. […] The cells were treated as described above.
Briefly, Cells were seeded at density of 80 × 10^3 cells per well in 24 well plates. […] Then, the medium was removed and 300 μl of 0.5 mg/mL MTT solution in Hank’s Balanced Salt Solution (HBSS) was added to each well. After 2 h incubation at 37∘C, the MTT solution was removed and the cells were washed three times with HBSS, then the culture plates were incubated with 500 μl dimethyl sulphoxide (DMSO) for 15 min at room temperature. The absorption was detected at 540 nm using the Synergy plate reader. The proliferation of cells from MTT studies was expressed as a percent of control, DMSO-treated cells of the same type. An inhibitory sigmoidal model was fitted to the experimental data using Phoenix WinNonlin 6.3 (Pharsight, Mountain View, CA, USA).

Data set [4] in a line: MTT cell proliferation assay, BCRP-overexpressing cells. Format: cell-based, canine. The note with it: dog, MDCK-BCRP cells (MDCK cells transfected with wild-type BCRP), read-out: IC50 for inhibition of cell proliferation in MDCK-BCRP cells. How it is done: as §1
Madin-Darbey canine kidney vector (MDCK-pcDNA3) and MDCK-BCRP cells were grown in Eagle’s minimum essential medium (MEM) supplemented with 10% fetal bovine serum, 2 mM L-glutamine, 100 units/mL penicillin, and 100 μg/mL streptomycin, at 37∘C and 5% CO2-humidified incubator. The BCRP positive cells were selected by supplementation of 0.05 mg/mL gentamicin to the growth medium. The adherent cells, continuously cultivated in 10 cm^2 cell culture plates, were grown to nearly 80–90% confluence before they were harvested by trypsin-EDTA 0.25% solution. A549 were grown in Ham’s F12 growth medium and HCC827 were grown in RPMI-1640 growth medium. The cells were treated as described above.
The assay was performed as described earlier ([Rajendra et al., 2003]) with minor modifications. Briefly, Cells were seeded at density of 80 × 10^3 cells per well in 24 well plates. On the following day, the cells were incubated (in hexaplicates) with 0.2–102.4 μM of the tested EGFRIs or with the vehicle in the growth medium for 72 h. Then, the medium was removed and 300 μl of 0.5 mg/mL MTT solution in Hank’s Balanced Salt Solution (HBSS) was added to each well. After 2 h incubation at 37∘C, the MTT solution was removed and the cells were washed three times with HBSS, then the culture plates were incubated with 500 μl dimethyl sulphoxide (DMSO) for 15 min at room temperature. The absorption was detected at 540 nm using the Synergy plate reader. The proliferation of cells from MTT studies was expressed as a percent of control, DMSO-treated cells of the same type. An inhibitory sigmoidal model was fitted to the experimental data using Phoenix WinNonlin 6.3 (Pharsight, Mountain View, CA, USA).

On the set-up of data set [5]: method as in Dissoki et al., 2007. The note with it: ref Dissoki et al., 2007; cited from earlier work.
Data set [6] deals with P-gp. Further details: method as in Abourbeh et al., 2007. The note with it: ref Abourbeh et al., 2007; cited from earlier work.
In data set [7] the test system is EGFR. More on the design: method as in earlier work. The note with it: A431 cell lysates; ref Shaul et al., 2004; Mishani et al., 2005; Dissoki et al., 2007; read-out: EGFR binding potency IC50; cited from earlier work.

Take `COc1ccc2c3c([nH]c2c1)[C@H](C=C(C)C)N1C(=O)[C@@H]2CCCN2C(=O)[C@@H]1C3` [FTC, fumitremorgin C]: the “BODIPY-prazosin accumulation in MDCK-BCRP cells” value in data set [1] is on record as “significantly (p < 0.01) enhanced”.
With `CN(C)C/C=C/C(=O)Nc1ccc2ncnc(Nc3cc(Cl)c(Cl)cc3F)c2c1` [ML04], the “Activation of BCRP ATPase” value in data set [2] is listed as “activated BCRP ATPase”. Also, the IC50 in data set [3] was 2100 ± 600 nM. In addition, the IC50 at 72 h in data set [4] is greater than 50000 nM. Besides, the “Log P” value in data set [5] is on record as 3.9. In data set [6], the P-gp substrate status result was “found to be a P-gp substrate”.
Take `O=C(CCl)Nc1ccc2ncnc(Nc3cc(Cl)c(Cl)cc3F)c2c1` [ML05]: in data set [2], the “Activation of BCRP ATPase” value is reported as “activated BCRP ATPase” and the “BCRP ATPase activation relative to that produced by gefitinib” value is reported as no more than 40%. The IC50 in data set [7] is 10 nM. The “Log P” value in data set [5] is 4.12.
For the compound `CN(C)C/C=C/C(=O)Nc1ccc2ncnc(Nc3cccc(I)c3)c2c1` [ML06], in data set [2], the “Activation of BCRP ATPase” value is on record as “activated BCRP ATPase” and the “BCRP ATPase activation relative to that produced by gefitinib” value is no more than 40%. In addition, in data set [3], the IC50 stood at 2200 ± 700 nM. Moreover, the IC50 at 72 h in data set [4] was greater than 50000 nM. Also, the IC50 in data set [7] was 0.05 to 5 nM.
Take `O=C(/C=C/CN(CCO)CCO)Nc1cc2c(Nc3cc(Cl)c(Cl)cc3F)ncnc2cc1OCCOCCOCCOCCF` [ML10]: the “Activation of BCRP ATPase” value in data set [2] is recorded as “no activating effect”.
Take `O=C(CCl)Nc1cc2c(Nc3cc(Cl)c(Cl)cc3F)ncnc2cc1OCCOCCOCCOCCOCCOCCF` [PEG6-ML05]: the “Activation of BCRP ATPase” value in data set [2] is “no activating effect”. Also, the IC50 in data set [3] was 2800 ± 3100 nM; in data set [7], 30 to 45 nM. Also, in data set [4], the IC50 at 72 h was greater than 50000 nM. In data set [5], the “Log P” value is 4.75.
On to `COCC(=O)Nc1ccc2ncnc(Nc3cccc(Br)c3)c2c1` [methoxy-Br-ML03, N-{4-[(3-Bromo-phenyl)amino]-quinazoline-6-yl}-2-methoxyacetamide], for which the “Activation of BCRP ATPase” value in data set [2] is “activated BCRP ATPase”. Also, the IC50 in data set [3] came to 1800 ± 1200 nM. The IC50 at 72 h in data set [4] is greater than 50000 nM.
As for `COCC(=O)Nc1ccc2ncnc(Nc3cc(Cl)c(Cl)cc3F)c2c1` [methoxy-ML03], the “Activation of BCRP ATPase” value in data set [2] is “activated BCRP ATPase”. In data set [7], the IC50 was 252 nM.
